Test results reported in patent US20230226040A1, “COMBINATION THERAPY COMPRISING AN FGFR INHIBITOR AND A KRAS INHIBITOR” (Incyte Corporation, priority 2021, published 2023).

Experiments:
Assay type in all cases: cell-based
H358 = assay: 5-day Cell Titer Glo combination matrix, Bliss score; settings: H358 (Lung, Epithelial), 5 days
Protocol: (§1) Cells were seeded in RPMI medium with 10% HI FBS at a density of 500 cells/well in Greiner, white, clear bottom, 384-well tissue culture treated plates containing 10×10 combination matrices of compound. Plates were incubated at 37° C., 5% CO2 for 5 days. On day 5, Cell Titer Glo reagent was added to the plates and ATP luminescence was detected using a Pherastar FSX reader. The synergy score for the combination effect was calculated using a Bliss score model where the Bliss score=Yab-(Ya+Yb−(YaYb))×100, where Ya and Yb are the monotherapies. Bliss scores >20 are strongly synergistic and a higher Bliss scores indicates a higher level of synergism.
(§2) Cells were seeded in RPMI medium with 10% HI FBS at a density of 500 cells/well in Greiner, white, clear bottom, 384-well tissue culture treated plates containing 10×10 combination matrices of compound. Plates were incubated at 37° C., 5% CO2 for 5 days. On day 5, Cell Titer Glo reagent was added to the plates and ATP luminescence was detected using a Pherastar FSX reader. Synergy score for the combination effect is calculated using a Bliss score model where the Bliss score=Yab−(Ya+Yb−(YaYb))×100, where Ya and Yb are the monotherapies. Bliss scores >20 are strongly synergistic and a higher Bliss scores indicates a higher level of synergism.
(§3) Cells were seeded in RPMI medium with 10% HI FBS at a density of 500 cells/well in Greiner, white, clear bottom, 384-well tissue culture treated plates containing 10×10 combination matrices of compound. Plates were incubated at 37° C., 5% CO2 for 5 days. On day 5, Cell Titer Glo reagent was added to the plates and ATP luminescence was detected using a Pherastar FSX reader. The synergy score for the combination effect was calculated using a Bliss score model where the Bliss score=Yab−(Ya+Yb−(YaYb))×100, where Ya and Yb are the monotherapies. Bliss scores >20 are strongly synergistic and a higher Bliss scores indicates a higher level of synergism.

SW-1573 = assay: as above; settings: 5 days
Protocol: as §1, §2, §3

[1] = tested on: MiaPaca2 KRAS G12C resistant clone 11; assay: 5-day Cell Titer Glo viability and Bliss score
Protocol: For G12C resistant clone generation, MiaPaca2 parent cells were cultured with increasing concentrations of AMG510 (up to 1μM) over time. The viable cells were re-fed fresh media containing AMG510 weekly. Once the AMG510 resistant cells were growing at normal rates in the presence of 1μM AMG510, they were cloned by limiting dilution. Eight clones were selected for continued passage and further experiments.

[2] = CLONE 11, G12C i 111 nM + Pemi 1 μM, 5-day CTG

CCN1C(=O)N(c2c(F)c(OC)cc(OC)c2F)Cc2cnc3[nH]c(CN4CCOCC4)cc3c21 [Pemigatinib, 3-(2,6-difluoro-3,5-dimethoxyphenyl)-1-ethyl-8-(morpholin-4-ylmethyl)-1,3,4,7-tetrahydro-2H-pyrrolo[3′,2′:5,6]pyrido[4,3-d]pyrimidin-2-one]
Avg. Bliss Score (H358; FGFR inhibitor in combination with Cmpd 3): 1.4
Avg. Bliss Score (H358; FGFR inhibitor in combination with MRTX849): 3.7
Avg. Bliss Score (SW-1573; SW1573 (Lung, Mesenchymal), FGFR inhibitor in combination with MRTX849): 29.5
Avg. Bliss Score (SW-1573; SW-1573 (Lung, Mesenchymal), FGFR inhibitor in combination with Cmpd 3): 19.3
% viability, Together [1, 2]: 33.8%
BLISS Score [1, 2]: 24.9
% viability, Pemi 1 μM ([1]; CLONE 11, Pemi alone, 5-day CTG): 87.6%
BLISS Score ([1]; MIA-R clone 11, Pemi 12 nM + KRAS G12C i 0.15 nM, 5 day CTG): 2.35
BLISS Score ([1]; MIA-R clone 11, Pemi 12 nM + KRAS G12C i 0.46 nM, 5 day CTG): 11.42
BLISS Score ([1]; MIA-R clone 11, Pemi 12 nM + KRAS G12C i 1.37 nM, 5 day CTG): 6.90
BLISS Score ([1]; MIA-R clone 11, Pemi 12 nM + KRAS G12C i 4.12 nM, 5 day CTG): 11.81
BLISS Score ([1]; MIA-R clone 11, Pemi 12 nM + KRAS G12C i 12.35 nM, 5 day CTG): 1.32
BLISS Score ([1]; MIA-R clone 11, Pemi 12 nM + KRAS G12C i 37.04 nM, 5 day CTG): 5.62
BLISS Score ([1]; MIA-R clone 11, Pemi 12 nM + KRAS G12C i 111.11 nM, 5 day CTG): 11.57
BLISS Score ([1]; MIA-R clone 11, Pemi 12 nM + KRAS G12C i 333.33 nM, 5 day CTG): −7.24
BLISS Score ([1]; MIA-R clone 11, Pemi 12 nM + KRAS G12C i 1000.00 nM, 5 day CTG): 1.05
BLISS Score ([1]; MIA-R clone 11, Pemi 37 nM + KRAS G12C i 0.15 nM, 5 day CTG): 14.47
BLISS Score ([1]; MIA-R clone 11, Pemi 37 nM + KRAS G12C i 0.46 nM, 5 day CTG): 6.20
BLISS Score ([1]; MIA-R clone 11, Pemi 37 nM + KRAS G12C i 1.37 nM, 5 day CTG): 6.05
BLISS Score ([1]; MIA-R clone 11, Pemi 37 nM + KRAS G12C i 4.12 nM, 5 day CTG): 20.01
BLISS Score ([1]; MIA-R clone 11, Pemi 37 nM + KRAS G12C i 12.35 nM, 5 day CTG): 15.07
BLISS Score ([1]; MIA-R clone 11, Pemi 37 nM + KRAS G12C i 37.04 nM, 5 day CTG): 10.60
BLISS Score ([1]; MIA-R clone 11, Pemi 37 nM + KRAS G12C i 111.11 nM, 5 day CTG): 8.39
BLISS Score ([1]; MIA-R clone 11, Pemi 37 nM + KRAS G12C i 333.33 nM, 5 day CTG): −5.78
BLISS Score ([1]; MIA-R clone 11, Pemi 37 nM + KRAS G12C i 1000.00 nM, 5 day CTG): 4.52
BLISS Score ([1]; MIA-R clone 11, Pemi 111 nM + KRAS G12C i 0.15 nM, 5 day CTG): −3.03
BLISS Score ([1]; MIA-R clone 11, Pemi 111 nM + KRAS G12C i 0.46 nM, 5 day CTG): 6.04
BLISS Score ([1]; MIA-R clone 11, Pemi 111 nM + KRAS G12C i 1.37 nM, 5 day CTG): 8.76
BLISS Score ([1]; MIA-R clone 11, Pemi 111 nM + KRAS G12C i 4.12 nM, 5 day CTG): 13.15
BLISS Score ([1]; MIA-R clone 11, Pemi 111 nM + KRAS G12C i 12.35 nM, 5 day CTG): 15.70
BLISS Score ([1]; MIA-R clone 11, Pemi 111 nM + KRAS G12C i 37.04 nM, 5 day CTG): 13.58
BLISS Score ([1]; MIA-R clone 11, Pemi 111 nM + KRAS G12C i 111.11 nM, 5 day CTG): 9.80
BLISS Score ([1]; MIA-R clone 11, Pemi 111 nM + KRAS G12C i 333.33 nM, 5 day CTG): 6.86
BLISS Score ([1]; MIA-R clone 11, Pemi 111 nM + KRAS G12C i 1000.00 nM, 5 day CTG): 3.15
BLISS Score ([1]; MIA-R clone 11, Pemi 333 nM + KRAS G12C i 0.15 nM, 5 day CTG): 6.68
BLISS Score ([1]; MIA-R clone 11, Pemi 333 nM + KRAS G12C i 0.46 nM, 5 day CTG): 20.56
BLISS Score ([1]; MIA-R clone 11, Pemi 333 nM + KRAS G12C i 1.37 nM, 5 day CTG): 17.83
BLISS Score ([1]; MIA-R clone 11, Pemi 333 nM + KRAS G12C i 4.12 nM, 5 day CTG): 34.95
BLISS Score ([1]; MIA-R clone 11, Pemi 333 nM + KRAS G12C i 12.35 nM, 5 day CTG): 20.46
BLISS Score ([1]; MIA-R clone 11, Pemi 333 nM + KRAS G12C i 37.04 nM, 5 day CTG): 24.19
BLISS Score ([1]; MIA-R clone 11, Pemi 333 nM + KRAS G12C i 111.11 nM, 5 day CTG): 25.28
BLISS Score ([1]; MIA-R clone 11, Pemi 333 nM + KRAS G12C i 333.33 nM, 5 day CTG): 14.69
BLISS Score ([1]; MIA-R clone 11, Pemi 333 nM + KRAS G12C i 1000.00 nM, 5 day CTG): 13.90
BLISS Score ([1]; MIA-R clone 11, Pemi 1000 nM + KRAS G12C i 0.15 nM, 5 day CTG): −0.21
BLISS Score ([1]; MIA-R clone 11, Pemi 1000 nM + KRAS G12C i 0.46 nM, 5 day CTG): 11.01
BLISS Score ([1]; MIA-R clone 11, Pemi 1000 nM + KRAS G12C i 1.37 nM, 5 day CTG): 23.94
BLISS Score ([1]; MIA-R clone 11, Pemi 1000 nM + KRAS G12C i 4.12 nM, 5 day CTG): 31.01
BLISS Score ([1]; MIA-R clone 11, Pemi 1000 nM + KRAS G12C i 12.35 nM, 5 day CTG): 29.47
BLISS Score ([1]; MIA-R clone 11, Pemi 1000 nM + KRAS G12C i 37.04 nM, 5 day CTG): 21.52
BLISS Score ([1]; MIA-R clone 11, Pemi 1000 nM + KRAS G12C i 111.11 nM, 5 day CTG): 24.91
BLISS Score ([1]; MIA-R clone 11, Pemi 1000 nM + KRAS G12C i 333.33 nM, 5 day CTG): 20.06
BLISS Score ([1]; MIA-R clone 11, Pemi 1000 nM + KRAS G12C i 1000.00 nM, 5 day CTG): 21.43
